Laboratory results as given in patent publication US20020137929A1, “1 - (3-heterocyclylphenyl) isothiourea, -isourea, -guanidine and -amidine herbicidal agents” (Intellectual Property Department, BASF Aktiengesellschaft, priority 1998, published 2002).

Tests used:
[1] = test system: ZEAMX (Corn, Field); experiment: Preemergence herbicidal evaluation; assay type: in vivo, Zea mays; conditions: rated 4-5 weeks after treatment; for ZEAMX rating: preemergence, 0-9 scale
Method in brief: (§1)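 Visual 0-9 rating vs control (stand, vigor, malformation, size, chlorosis, overall appearance), scored 4-5 wk after spraying. Seeded soil cups were treated preemergence with compound in aqueous acetone, ~0.0156-0.500 kg/ha equivalent.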

[2] = test system: ORYSAT (Rice, Tebonnet); experiment: Preemergence herbicidal evaluation; assay type: in vivo, Oryza sativa, (L.) Tebonnet; conditions: rated 4-5 weeks after treatment; for ORYSAT rating: preemergence, 0-9 scale
Method in brief: as §1

[3] = test system: CHEAL (Lambsquarters, Common); experiment: Postemergence herbicidal evaluation; assay type: in vivo, Chenopodium album; conditions: postemergence
Method in brief: (§2)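 First, seedlings were raised for around two weeks. Next, test material in 50/50 acetone/water containing 0.5% TWEEN 20 was sprayed through a nozzle at 40 psi, equivalent to about 0.0156–0.500 kg/ha. Finally, after 4–5 weeks in the greenhouse, plants were rated 0–9.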

[4] = test system: MOOVA (Monochoria); experiment: Preemergence weed control under flooded paddy conditions; assay type: in vivo, Monochoria vaginalis; conditions: rated 3-4 weeks after treatment
Method in brief: (§3)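 Herbicidal effect is scored visually on a 0-9 scale against an untreated control, three to four weeks after compounds are pipetted into the flood water (1.5 to 3 cm deep) over seeds planted in silt loam at 0.5 cm depth. Rates: about 0.0313 to 0.500 kg/ha.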

[5] = test system: GALAP (Galium); experiment: Preemergence herbicidal evaluation; assay type: in vivo, Galium aparine; conditions: preemergence, rated 4-5 weeks after treatment, 0-9 scale
Method in brief: as §1

[6] = test system: CYPSE (Flatsedge); experiment: Postemergence weed control under flooded paddy conditions; assay type: in vivo, Cyperus serotinus; conditions: postemergence weeds
Method in brief: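 Herbicidal effect is judged by eye on a 0–9 scale versus control, 3–4 weeks after dosing. Dosing is into flood water kept 1.5–3 cm over the soil, at about 0.0313–0.500 kg/ha in aqueous/acetone 50/50 v/v, on 3–5 cm weeds and 1.5–2.5-leaf rice seedlings.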

[7] = test system: CYPIR (Rice Flatsedge); experiment: Preemergence weed control under flooded paddy conditions; assay type: in vivo, Cyperus iria; conditions: rated 3-4 weeks after treatment
Method in brief: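 Ratings on a 0-9 visual scale cover stand, vigor, malformation, size, chlorosis and overall appearance relative to a control, taken three to four weeks post-treatment. Application was into flood water over freshly sown silt loam at roughly 0.0313 to 0.500 kg/ha.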

[8] = test system: CASOB (Sicklepod); experiment: Postemergence herbicidal evaluation; assay type: in vivo, Cassia obtusifolia; conditions: postemergence
Method in brief: as §2

[9] = test system: SETVI (Foxtail, Green); experiment: Preemergence herbicidal evaluation; assay type: in vivo, Setaria viridis; conditions: rated 4-5 weeks after treatment; for SETVI rating: preemergence, 0-9 scale
Method in brief: as §1

[10] = test system: TRZAWR (Wheat, Winter, cv Riband); experiment: Preemergence herbicidal evaluation; assay type: in vivo, Triticum aestivum; conditions: rated 4-5 weeks after treatment; for TRZAWR rating: preemergence, 0-9 scale
Method in brief: as §1

[11] = test system: ECHCG (Barnyardgrass); experiment: Postemergence herbicidal evaluation; assay type: in vivo, Echinochloa crus-galli; conditions: postemergence
Method in brief: as §2

[12] = test system: GLXMAW (Soybean, Williams); experiment: Preemergence herbicidal evaluation; assay type: in vivo, Glycine max, (L.) Merr. cv Williams; conditions: preemergence, rated 4-5 weeks after treatment, 0-9 scale
Method in brief: as §1

[13] = test system: ORYSAT (Rice, Tebonnet); experiment: Postemergence herbicidal evaluation; assay type: in vivo, Oryza sativa, (L.) Tebonnet; conditions: postemergence
Method in brief: as §2

[14] = test system: SAGPY (Arrowhead (Pygmaea)); experiment: Preemergence weed control under flooded paddy conditions; assay type: in vivo, Sagittaria pygmaea; conditions: rated 3-4 weeks after treatment
Method in brief: as §3

## CN1C(=O)C(CC(=O)NS(C)(=O)=O)SC1=Nc1cc(-n2c(=O)cc(C(F)(F)F)n(C)c2=O)c(F)cc1Cl (centres unmarked) [Compound 97, 2-{{2-Chloro-5-[3,6-dihydro-3-methyl-2,6-dioxo-4-(trifluoromethyl)-1(2H)-pyrimidinyl]-4-fluorophenyl}imino}-3-methyl-N-(methylsulfonyl)-4-oxo-5-thiazolidineacetamide]
[1]; 0.1250 kg/ha
  ZEAMX rating: 0.0
[1]; 0.2500 kg/ha
  ZEAMX rating: 0.0
[1]; 0.5000 kg/ha
  ZEAMX rating: 4.0
[2]; 0.1250 kg/ha
  ORYSAT rating: 0.0
[2]; 0.2500 kg/ha
  ORYSAT rating: 1.0
[2]; 0.5000 kg/ha
  ORYSAT rating: 1.0
[3]; rate 0.0156 kg/ha
  CHEAL herbicidal rating: 0.0
[3]; rate 0.0313 kg/ha
  CHEAL herbicidal rating: 1.0
[3]; rate 0.0625 kg/ha
  CHEAL herbicidal rating: 4.0
[3]; rate 0.1250 kg/ha
  CHEAL herbicidal rating: 7.0
[4]; 0.0313 kg/ha
  MOOVA herbicidal effect rating: 9.0
[4]; 0.0625 kg/ha
  MOOVA herbicidal effect rating: 9.0
[4]; 0.1250 kg/ha
  MOOVA herbicidal effect rating: 9.0
[4]; 0.2500 kg/ha
  MOOVA herbicidal effect rating: 9.0
[5]; 0.1250 kg/ha
  GALAP rating: 1.0
[5]; 0.2500 kg/ha
  GALAP rating: 0.0
[5]; 0.5000 kg/ha
  GALAP rating: 5.0
[6]; Rate 0.0313 kg/ha, rated 3 to 4 weeks after treatment
  Herbicidal rating CYPSE: 0.0
[6]; Rate 0.0625 kg/ha, rated 3 to 4 weeks after treatment
  Herbicidal rating CYPSE: 0.0
[6]; Rate 0.1250 kg/ha, rated 3 to 4 weeks after treatment
  Herbicidal rating CYPSE: 0.0
[6]; Rate 0.2500 kg/ha, rated 3 to 4 weeks after treatment
  Herbicidal rating CYPSE: 3.0
[7]; 0.0313 kg/ha
  CYPIR herbicidal effect rating: 0.0
[7]; 0.0625 kg/ha
  CYPIR herbicidal effect rating: 0.0
[7]; 0.1250 kg/ha
  CYPIR herbicidal effect rating: 3.0
[7]; 0.2500 kg/ha
  CYPIR herbicidal effect rating: 4.0
[8]; rate 0.0156 kg/ha
  CASOB herbicidal rating: 0.0
[8]; rate 0.0313 kg/ha
  CASOB herbicidal rating: 0.0
[8]; rate 0.0625 kg/ha
  CASOB herbicidal rating: 0.0
[8]; rate 0.1250 kg/ha
  CASOB herbicidal rating: 1.0
[9]; 0.1250 kg/ha
  SETVI rating: 0.0
[9]; 0.2500 kg/ha
  SETVI rating: 1.0
[9]; 0.5000 kg/ha
  SETVI rating: 7.0
[10]; 0.1250 kg/ha
  TRZAWR rating: 0.0
[10]; 0.2500 kg/ha
  TRZAWR rating: 1.0
[10]; 0.5000 kg/ha
  TRZAWR rating: 2.0
[11]; rate 0.0156 kg/ha
  ECHCG herbicidal rating: 1.0
[11]; rate 0.0313 kg/ha
  ECHCG herbicidal rating: 1.0
[11]; rate 0.0625 kg/ha
  ECHCG herbicidal rating: 3.0
[11]; rate 0.1250 kg/ha
  ECHCG herbicidal rating: 6.0
[12]; 0.1250 kg/ha
  GLXMAW rating: 0.0
[12]; 0.2500 kg/ha
  GLXMAW rating: 0.0
[12]; 0.5000 kg/ha
  GLXMAW rating: 3.0
[13]; rate 0.0156 kg/ha
  ORYSAT herbicidal rating: 0.5
[13]; rate 0.0313 kg/ha
  ORYSAT herbicidal rating: 0.5
[13]; rate 0.0625 kg/ha
  ORYSAT herbicidal rating: 2.5
[13]; rate 0.1250 kg/ha
  ORYSAT herbicidal rating: 3.0

## CN1C(=O)C(F)SC1=Nc1cc(N2C(=O)C3=C(CCCC3)C2=O)c(F)cc1Cl (centres unmarked) [Compound 5, N-{4-chloro-2-fluoro-5-[(5-fluoro-3-methyl-4-oxo-2-thiazolidinylidene)amino]phenyl}-1-cyclohexene-1,2-dicarboximide]
[1]; rate 0.0625 kg/ha
  ZEAMX preemergence herbicidal rating: 0.0
[1]; rate 0.1250 kg/ha
  ZEAMX preemergence herbicidal rating: 1.0
[1]; rate 0.2500 kg/ha
  ZEAMX preemergence herbicidal rating: 2.0
[1]; rate 0.5000 kg/ha
  ZEAMX preemergence herbicidal rating: 2.0
[2]; rate 0.0625 kg/ha
  ORYSAT preemergence herbicidal rating: 0.0
[2]; rate 0.1250 kg/ha
  ORYSAT preemergence herbicidal rating: 0.0
[2]; rate 0.2500 kg/ha
  ORYSAT preemergence herbicidal rating: 2.0
[2]; rate 0.5000 kg/ha
  ORYSAT preemergence herbicidal rating: 2.0
[14]; 0.1250 kg/ha
  Herbicidal rating SAGPY: 0.0
[14]; 0.2500 kg/ha
  Herbicidal rating SAGPY: 0.0
[14]; 0.5000 kg/ha
  Herbicidal rating SAGPY: 0.0
[3]; rate 0.0157 kg/ha
  CHEAL herbicidal rating: 2.0
[3]; rate 0.0313 kg/ha
  CHEAL herbicidal rating: 2.0
[3]; rate 0.0625 kg/ha
  CHEAL herbicidal rating: 6.0
[3]; rate 0.1250 kg/ha
  CHEAL herbicidal rating: 9.0
[3]; rate 0.2500 kg/ha
  CHEAL herbicidal rating: 8.0
[3]; rate 0.5000 kg/ha
  CHEAL herbicidal rating: 9.0
[4]; 0.1250 kg/ha
  Herbicidal rating MOOVA: 2.0
[4]; 0.2500 kg/ha
  Herbicidal rating MOOVA: 4.0
[4]; 0.5000 kg/ha
  Herbicidal rating MOOVA: 8.0
[6]; rate 0.1250 kg/ha, 3-4 weeks after treatment
  Herbicidal rating CYPSE: 0.0
[6]; rate 0.2500 kg/ha, 3-4 weeks after treatment
  Herbicidal rating CYPSE: 0.0
[6]; rate 0.5000 kg/ha, 3-4 weeks after treatment
  Herbicidal rating CYPSE: 0.5
[7]; 0.1250 kg/ha
  Herbicidal rating CYPIR: 0.0
[7]; 0.2500 kg/ha
  Herbicidal rating CYPIR: 0.0
[7]; 0.5000 kg/ha
  Herbicidal rating CYPIR: 0.0
[8]; rate 0.0157 kg/ha
  CASOB herbicidal rating: 0.0
[8]; rate 0.0313 kg/ha
  CASOB herbicidal rating: 0.0
[8]; rate 0.0625 kg/ha
  CASOB herbicidal rating: 0.0
[8]; rate 0.1250 kg/ha
  CASOB herbicidal rating: 0.0
[8]; rate 0.2500 kg/ha
  CASOB herbicidal rating: 0.0
[8]; rate 0.5000 kg/ha
  CASOB herbicidal rating: 9.0
[9]; rate 0.0625 kg/ha
  SETVI preemergence herbicidal rating: 0.0
[9]; rate 0.1250 kg/ha
  SETVI preemergence herbicidal rating: 2.0
[9]; rate 0.2500 kg/ha
  SETVI preemergence herbicidal rating: 6.0
[9]; rate 0.5000 kg/ha
  SETVI preemergence herbicidal rating: 9.0
[10]; rate 0.0625 kg/ha
  TRZAWR preemergence herbicidal rating: 0.0
[10]; rate 0.1250 kg/ha
  TRZAWR preemergence herbicidal rating: 0.0
[10]; rate 0.2500 kg/ha
  TRZAWR preemergence herbicidal rating: 1.0
[10]; rate 0.5000 kg/ha
  TRZAWR preemergence herbicidal rating: 2.0
[11]; rate 0.0157 kg/ha
  ECHCG herbicidal rating: 0.0
[11]; rate 0.0313 kg/ha
  ECHCG herbicidal rating: 0.0
[11]; rate 0.0625 kg/ha
  ECHCG herbicidal rating: 0.0
[11]; rate 0.1250 kg/ha
  ECHCG herbicidal rating: 3.0
[11]; rate 0.2500 kg/ha
  ECHCG herbicidal rating: 4.0
[11]; rate 0.5000 kg/ha
  ECHCG herbicidal rating: 2.0
[13]; rate 0.0157 kg/ha
  ORYSAT herbicidal rating: 1.5
[13]; rate 0.0313 kg/ha
  ORYSAT herbicidal rating: 1.5
[13]; rate 0.0625 kg/ha
  ORYSAT herbicidal rating: 2.5
[13]; rate 0.1250 kg/ha
  ORYSAT herbicidal rating: 2.5
[13]; rate 0.2500 kg/ha
  ORYSAT herbicidal rating: 2.5
[13]; rate 0.5000 kg/ha
  ORYSAT herbicidal rating: 2.5
